The target of the assay is T1, mu opiate receptor (MOR) (Rattus norvegicus, UniProt P33535).
T1 construct: from tissue; host or cells: striatum (membrane preparation)
Put plainly: MOR agonist activity using [35S]GTPgS binding assay in striatal membranes. The format is biochemical. Here is the method: To assess the mu opiate receptor (MOR) agonist activity of positive compounds from the FLNA screening, compounds were tested in a [^35S]GTPgS binding assay using striatal membranes. […] This assay measures a functional consequence of receptor occupancy at one of the earliest receptor-mediated events. The assay permits for traditional pharmacological parameters of potency, efficacy and antagonist affinity, with the advantage that agonist measures are not subjected to amplification or other modulation that may occur when analyzing parameters further downstream of the receptor.
Thus, striatal tissue was homogenized in 10 volumes of ice cold 25 mM HEPES buffer, pH 7.4, which contained 1 mM EGTA, 100 mM sucrose, 50 mg/ml leupeptin, 0.04 mM PMSF, 2 mg/ml soybean trypsin inhibitor and 0.2% 2-mercaptoethanol. The homogenates were centrifuged at 800×g for 5 minutes and the supernatants were centrifuged at 49,000×g for 20 minutes. The resulting pellets were suspended in 10 volume of reaction buffer, which contained 25 mM HEPES, pH 7.5, 100 mM NaCl, 50 mg/ml leupeptin, 2 mg/ml soybean trypsin inhibitor, 0.04 mM PMSF and 0.02% […].
The resultant striatal membrane preparation (200 mg) was admixed and maintained (incubated) at 30° C. for 5 minutes in reaction buffer as above that additionally contained 1 mM MgCl2 and 0.5 nM [^35S]GTPgS (0.1 mCi/assay, PerkinElmer Life and Analytical Sciences) in a total volume of 250 ml and continued for 5 minutes in the absence or presence of 0.1-10 mM of an assayed compound of interest. The reaction was terminated by dilution with 750 ml of ice-cold reaction buffer that contained 20 mM MgCl2 and 1 mM EGTA and immediate centrifugation at 16,000×g for 5 minutes.
The resulting pellet was solubilized by sonicating for 10 seconds in 0.5 ml of immunoprecipitation buffer containing 0.5% digitonin, 0.2% sodium cholate and 0.5% NP-40. Normal rabbit serum (1 ml) was added to 1 ml of lysate and incubated at 25° C. for 30 minutes. Nonspecific immune complexes were removed by incubation with 25 ml of protein A/G-conjugated agarose beads at 25° C. for 30 minutes followed by centrifugation at 5,000×g at 4° C. for 5 minutes. The supernatant was divided and separately incubated at 25° C. for 30 minutes with antibodies raised against Gao proteins (1:1,000 dilutions).
The immunocomplexes so formed were collected by incubation at 25° C. for 30 minutes with 40 ml of agarose-conjugated protein A/G beads and centrifugation at 5,000×g at 4° C. for 5 minutes. The pellet was washed and suspended in buffer containing 50 mM Tris-HCl, pH 8.0, and 1% NP-40. The radioactivity in the suspension was determined by liquid scintillation spectrometry. […] DAMGO (1 or 10 mM) was used as a positive control.

Setting [1] is: 0.1 μM compound as agonist, Series C-1 table.
[2] abbreviates: 1 μM compound as agonist, Series C-1 table.
The mark [3] stands for this setting: 0.1 μM compound as agonist, Series C-2 table.
Where [4] appears, read: 1 μM compound as agonist, Series C-2 table.

T1 sequence (P33535 whole entry): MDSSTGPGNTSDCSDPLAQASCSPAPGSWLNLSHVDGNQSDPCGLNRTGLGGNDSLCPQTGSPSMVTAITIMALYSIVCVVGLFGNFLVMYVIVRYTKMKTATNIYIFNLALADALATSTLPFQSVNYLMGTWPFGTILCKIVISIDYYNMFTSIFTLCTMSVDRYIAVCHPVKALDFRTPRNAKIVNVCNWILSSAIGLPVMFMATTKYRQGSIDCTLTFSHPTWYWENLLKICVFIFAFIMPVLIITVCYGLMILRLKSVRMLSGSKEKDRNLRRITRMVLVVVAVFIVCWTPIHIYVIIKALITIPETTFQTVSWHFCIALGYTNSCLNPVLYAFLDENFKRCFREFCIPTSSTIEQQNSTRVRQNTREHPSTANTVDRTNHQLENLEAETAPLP

Regarding `O=C(c1ccc([N+](=O)[O-])cc1)N1CCC2(CC1)OCCN2S(=O)(=O)c1ccc([N+](=O)[O-])cc1` [Compound C0022], the “MOR agonist activity ([35S]GTPgS binding to Gao)” value (from here on “MOR agonist activity”) reads like this: under setting [1], 194.3%; (1 μM + BFNA, Series C-1 table) 13.4%; under setting [2], 328.7%.
Take `CNc1ccc(S(=O)(=O)N2CCC3(CC2)OCCN3S(=O)(=O)c2ccc(NC)cc2)cc1` [Compound C0024]: the “MOR agonist activity” value is 178.4% under setting [1]; 59.3% (1 μM + BFNA, Series C-1 table); 229.6% under setting [2].
`O=S(=O)(c1ccc(Br)cc1)N1CCC2(CC1)OCCN2S(=O)(=O)c1ccc(Br)cc1` [Compound C0025]: the “MOR agonist activity” value stood at 235.7% under setting [1]; 80.2% (1 μM + BFNA, Series C-1 table); 320.7% under setting [2].
Consider `COc1ccc(S(=O)(=O)N2CCC3(CC2)NCCO3)cc1` [Compound C0026], for which the “MOR agonist activity” value is, setting by setting: under setting [3], 207.2%; (1 μM + BFNA, Series C-2 table) 21.2%; under setting [4], 288.4%.
As for `COc1ccc(S(=O)(=O)N2CCOC23CCNCC3)cc1` [Compound C0027], the “MOR agonist activity” value runs as follows: under setting [3], 233.2%; (1 μM + BFNA, Series C-2 table) 72.2%; under setting [4], 313.9%.
As for `COC(=O)c1ccc(S(=O)(=O)N2CCC3(CC2)OCCN3S(=O)(=O)c2ccc(C(=O)OC)cc2)cc1` [Compound C0028], the “MOR agonist activity” value is, setting by setting: under setting [1], 93.9%; (1 μM + BFNA, Series C-1 table) 78.4%; under setting [2], 132.4%.
The corresponding values for `O=S(=O)(c1ccc(F)cc1)N1CCC2(CC1)OCCN2S(=O)(=O)c1ccc(F)cc1` [Compound C0029] are 175.4%, 16.6% and 308.8%.
Turning to `CCCCc1ccc(S(=O)(=O)N2CCC3(CC2)OCCN3S(=O)(=O)c2ccc(CCCC)cc2)cc1` [Compound C0030], the “MOR agonist activity” value was 150.3% under setting [1]; 95.0% (1 μM + BFNA, Series C-1 table); 226.8% under setting [2].
The matching figures for `O=C(c1ccc([N+](=O)[O-])cc1)N1CCC2(CC1)OCCN2C(=O)c1ccc([N+](=O)[O-])cc1` [Compound C0032]: 145.4%, 80.9% and 202.0%.
The corresponding values for `O=C(c1ccc([N+](=O)[O-])cc1)N1CCC2(CC1)OCCN2S(=O)(=O)c1ccc([N+](=O)[O-])cc1` [Compound C0033] are 134.5%, 76.6% and 186.4%.
Turning to `NS(=O)(=O)c1ccc(S(=O)(=O)N2CCC3(CC2)OCCN3S(=O)(=O)c2ccc(S(N)(=O)=O)cc2)cc1` [Compound C0034], the “MOR agonist activity” value runs as follows: under setting [1], 103.6%; (1 μM + BFNA, Series C-1 table) 80.1%; under setting [2], 167.9%.
`O=[N+]([O-])c1ccc(S(=O)(=O)N2CCC3(CC2)NCCO3)cc1` [Compound C0040]: the “MOR agonist activity” value by setting is: under setting [3], 145.8%; (1 μM + BFNA, Series C-2 table) 90.4%; under setting [4], 308.3%.
Take `COc1ccc(NC(=O)N2CCC3(CC2)OCCN3S(=O)(=O)c2ccc(OC)cc2)cc1` [Compound C0041]: the “MOR agonist activity” value was determined as 186.1% under setting [1]; 95.5% (1 μM + BFNA, Series C-1 table); 244.4% under setting [2].
Regarding `O=C(OCc1ccccc1)c1ccc(S(=O)(=O)N2CCC3(CC2)OCCN3S(=O)(=O)c2ccc(C(=O)OCc3ccccc3)cc2)cc1` [Compound C0042], the “MOR agonist activity” value under setting [1] is listed as 167.1%; the “MOR agonist activity” value (1 μM + BFNA, Series C-1 table) is recorded as 110.6%; the “MOR agonist activity” value under setting [2] came out at 260.9%.
Take `COc1ccc(S(=O)(=O)N2CCOC23CCN(C(=O)OC(C)(C)C)CC3)cc1` [Compound C0043]: the “MOR agonist activity” value under setting [3] is 175.4%; the “MOR agonist activity” value (1 μM + BFNA, Series C-2 table) worked out at 83.3%; the “MOR agonist activity” value under setting [4] is 242.6%.
The corresponding values for `O=[N+]([O-])c1ccc(S(=O)(=O)N2CCC3(CC2)NCCS3)cc1` [Compound C0044] are 173.7%, 59.1% and 280.1%.
Turning to `O=[N+]([O-])c1ccc(S(=O)(=O)N2CCC3(CC2)NCCCO3)cc1` [Compound C0045], the “MOR agonist activity” value was found to be 149.2% under setting [3]; 105.3% (1 μM + BFNA, Series C-2 table); 238.8% under setting [4].
The corresponding values for `CC(=O)c1ccc(S(=O)(=O)N2CCOC23CCNCC3)cc1` [Compound C0046] are 286.2%, 156.8% and 492.9%.
In the case of `COc1ccc(S(=O)(=O)N2CCOC23CCN(S(=O)(=O)c2ccc(C(C)=O)cc2)CC3)cc1` [Compound C0047], the “MOR agonist activity” value is, setting by setting: under setting [1], 142.2%; (1 μM + BFNA, Series C-1 table) 80.1%; under setting [2], 206.1%.
The matching figures for `COc1ccc(S(=O)(=O)N2CCC3(CC2)OCCN3S(=O)(=O)c2ccc(C(C)=O)cc2)cc1` [Compound C0048]: 209.1%, 89.9% and 245.3%.
In the case of `COc1ccc(S(=O)(=O)N2CCC3(CC2)OCCN3S(=O)(=O)c2ccc(OC)c(OC)c2)cc1OC` [Compound C0049], the “MOR agonist activity” value under setting [1] is 106.6%; the “MOR agonist activity” value (1 μM + BFNA, Series C-1 table) worked out at 81.0%; the “MOR agonist activity” value under setting [2] came out at 210.0%.
Consider `CC(=O)N1CCSC12CCN(S(=O)(=O)c1ccc([N+](=O)[O-])cc1)CC2` [Compound C0050], for which the “MOR agonist activity” value by setting is: under setting [3], 110.3%; (1 μM + BFNA, Series C-2 table) 59.0%; under setting [4], 127.6%.
`CC(O)c1ccc(S(=O)(=O)N2CCC3(CC2)OCCN3S(=O)(=O)c2ccc(C(C)O)cc2)cc1` (stereo not drawn) [Compound C0051]: the “MOR agonist activity” value was 94.4% under setting [1]; 55.9% (1 μM + BFNA, Series C-1 table); 170.4% under setting [2].
The corresponding values for `CC(=O)c1ccc(C(=O)N2CCC3(CC2)OCCN3S(=O)(=O)c2ccc(C(C)=O)cc2)cc1` [Compound C0052] are 108.4%, 42.7% and 162.8%.
Consider `CC(=O)c1ccc(C(=O)N2CCOC23CCN(S(=O)(=O)c2ccc(C(C)=O)cc2)CC3)cc1` [Compound C0053], for which the “MOR agonist activity” value by setting is: under setting [1], 104.0%; (1 μM + BFNA, Series C-1 table) 93.1%; under setting [2], 157.2%.

For the origin of these results see patent US20220233512A1, “INHIBITING AN IMMUNE RESPONSE MEDIATED BY ONE OR MORE OF TLR2, RAGE, CCR5, CXCR4 AND CD4” (priority 2020, published 2022).
